Measured values reported in patent publication US10759803B2, “Asparagine endopeptidase (AEP) inhibitors for managing cancer and compositions related thereto” (priority 2014, dated 2020).
One block for each molecule: values may come before it.

Tests used:
[1] = system: amyloid precursor protein (APP) cleavage; assay: APP cleavage in OGD-treated primary cortical neurons; assay type: cell-based
Description: A. AEP activity, measured in primary neuronal cultures with 5 μM Cbz-Ala-Ala-Asn-AMC (x-axis denotes neurons were treated with 0.1 μM or 1.0 μM specified compound). B. Caspase activity, measured in primary neuronal cultures with 5 μM Ac-Asp-Glu-Val-Asp-AMC. C. Cathepsin activity, measured in primary neuronal cultures with 5 μM D-Val-Leu-Lys-AMC. D. Inhibition of APP cleavage. Lysates of primary cortical neurons pre-incubated with compounds for 30 min, underwent OGD for 4 hrs, were reperfused for 18 hrs (normoxia neurons remained at normoxic conditions). E. APP can be cleaved in a dose-dependent manner. Lysates of primary cortical neurons pre-incubated with compounds for 30 min, underwent OGD for 4 hrs, were reperfused for 18 hrs (normoxia neurons remained at normoxic conditions).
Depriving cells of oxygen and glucose is a cellular model that is employed to trigger acidosis in cultured cells. The efficacy of the compounds in a cellular model of oxygen-glucose deprivation (OGD) was determined in an effort to mimic the effects of stroke in primary cultured neurons. As a result of depriving neurons of oxygen and glucose-containing medium, AEP activity was doubled (FIG. 7A, ‘DMSO-Norm’ compared to ‘DMSO-OGD’), while Caspase-3 and Cathepsin activities remained relatively unchanged. […] Cleavage of APP is observed in response to only DMSO treatment (FIG. 7D, lane 2), and it appears that upon the treatment of 1 μM of compounds 10, 11, and 12, and just 0.1 μM of compound s31, 38 and 64, the cleavage was blocked, presumably due to AEP inhibition.

[2] = biological target: T1, endogenous AEP in human B lymphoblastoid pala cells (Homo sapiens, UniProt Q99538); assay: AEP inhibition in intact Pala cells; assay type: cell-based; details: 2 hrs incubation, residual enzymatic activity in lysate
T1 construct: human B lymphoblastoid pala cells, which are rich in endogenous AEP; endogenous in cells; host or cells: human B lymphoblastoid Pala cells
T1 sequence (Q99538 18-323): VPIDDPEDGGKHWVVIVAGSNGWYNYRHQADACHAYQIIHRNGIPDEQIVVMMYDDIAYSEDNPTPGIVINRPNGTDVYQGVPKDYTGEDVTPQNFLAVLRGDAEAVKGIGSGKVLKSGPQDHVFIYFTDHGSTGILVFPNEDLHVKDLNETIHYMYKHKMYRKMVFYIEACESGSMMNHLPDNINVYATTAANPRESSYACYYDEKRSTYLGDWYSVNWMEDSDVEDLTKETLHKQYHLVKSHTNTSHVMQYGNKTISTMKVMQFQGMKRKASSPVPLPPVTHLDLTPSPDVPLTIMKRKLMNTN
Description: The cells were incubated with inhibitors for 2 hrs then cells washed, harvested and lysed and the residual enzymatic activity was determined. Lysate was normalized by Bradford assay and the experiment was performed in triplicate and the mean results and SEM were plotted.
In an attempt to assess the activity of the compounds in intact cells, the compounds were incubated with human B lymphoblastoid pala cells, which are rich in endogenous AEP and have been used for inhibiting AEP in cellular assay.

AEP = biological target: T2, AEP (Homo sapiens, UniProt Q99538); assay: DTT / L-cysteine reversibility of AEP inhibition; assay type: biochemical; details: 10 mM DTT or L-cysteine added after 15 min
T2 construct: tested with purified active AEP, IC50 values for the top 8 candidates were found
T2 sequence (Q99538 18-323 limits assumed): T1 sequence (Q99538 18-323)
Description: AEP was reacted with specified inhibitor, after 15 min 10 mM DTT or L-cysteine was added to the reaction and the fluorescent signal was read for an additional 15 min. At the end of the second 15 min incubation, the percentage of product formed in the presence of each compound was determined in comparison to the DMSO control reaction.
Although it is not intended that embodiments of this disclosure be limited by any particular mechanism, to gain additional insight into the mechanism utilized by the inhibitors for abrogation of AEP activity, their reversibility in the presence of free thiols was determined. The addition of a strong reducing agent, such as DTT, or a weaker reducing agent, L-cysteine, to an inhibited reaction can be used to out-compete the inhibitory agent and restore catalytic activity to an enzyme with an active-site thiol residue. Here, a similar approach was used by adding a reducing agent, either DTT or L-cysteine, to a reaction, in which AEP had been incubated with a specified inhibitor, in an attempt to reverse the effects of the inhibitor. […] For compounds BB1 and 38, this increase in enzymatic activity may be due to the reduction of a disulfide linkage between the inhibitor and the enzyme, since these compounds contain thiols. Compound 10 contains a thiocyanate and may undergoes nucleophilic attack by the enzyme's active-site thiolate to form a thioimidate enzyme-inhibitor complex. Under acidic conditions, this complex is reducible by either a strong reducing agent, such as DTT, or the weaker L-cysteine.

CYP2C9 = CYP2C9 (Homo sapiens, UniProt P11712); assay: CYP inhibition screening, CYP2C9; assay type: in vitro ADME
CYP2C9, sequence (P11712 whole entry): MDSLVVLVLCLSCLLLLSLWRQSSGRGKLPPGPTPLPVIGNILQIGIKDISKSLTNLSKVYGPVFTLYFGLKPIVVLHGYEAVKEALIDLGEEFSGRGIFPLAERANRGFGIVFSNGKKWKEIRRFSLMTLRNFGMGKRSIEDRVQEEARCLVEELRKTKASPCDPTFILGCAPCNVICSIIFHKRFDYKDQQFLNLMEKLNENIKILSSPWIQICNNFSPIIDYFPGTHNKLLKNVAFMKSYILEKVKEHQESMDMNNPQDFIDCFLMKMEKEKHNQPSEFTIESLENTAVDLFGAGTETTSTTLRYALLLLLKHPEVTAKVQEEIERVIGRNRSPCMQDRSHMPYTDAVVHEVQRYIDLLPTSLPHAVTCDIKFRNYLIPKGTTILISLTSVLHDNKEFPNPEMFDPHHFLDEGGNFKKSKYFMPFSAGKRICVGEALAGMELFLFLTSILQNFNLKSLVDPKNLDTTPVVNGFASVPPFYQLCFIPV

CYP2D6 = CYP2D6 (Homo sapiens, UniProt P10635); assay: CYP inhibition screening, CYP2D6; assay type: in vitro ADME
CYP2D6, sequence (P10635 whole entry): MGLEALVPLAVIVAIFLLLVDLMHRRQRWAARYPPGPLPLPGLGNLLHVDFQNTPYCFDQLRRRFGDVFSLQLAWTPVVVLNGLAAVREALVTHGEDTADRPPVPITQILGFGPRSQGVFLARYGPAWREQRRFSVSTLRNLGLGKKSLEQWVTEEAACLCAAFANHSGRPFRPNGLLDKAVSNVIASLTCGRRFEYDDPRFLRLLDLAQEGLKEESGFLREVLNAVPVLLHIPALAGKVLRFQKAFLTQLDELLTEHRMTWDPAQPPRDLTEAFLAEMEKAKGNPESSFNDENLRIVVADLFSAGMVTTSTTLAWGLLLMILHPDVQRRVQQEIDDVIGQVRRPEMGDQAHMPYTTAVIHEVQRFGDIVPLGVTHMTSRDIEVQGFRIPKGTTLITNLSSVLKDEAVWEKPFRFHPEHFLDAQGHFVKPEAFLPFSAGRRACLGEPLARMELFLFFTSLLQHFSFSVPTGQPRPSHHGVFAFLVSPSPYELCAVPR

[3] = Human liver microsomal stability screen; details: Human liver microsomes
Caco-2 monolayer = Caco-2 monolayer permeability screen
Description: To explore the in vitro ADME profiles of the compounds, additional tests were conducted.

CYP2C19 = CYP2C19 (Homo sapiens, UniProt P33261); assay: CYP inhibition screening, CYP2C19; assay type: in vitro ADME
CYP2C19, sequence (P33261 whole entry): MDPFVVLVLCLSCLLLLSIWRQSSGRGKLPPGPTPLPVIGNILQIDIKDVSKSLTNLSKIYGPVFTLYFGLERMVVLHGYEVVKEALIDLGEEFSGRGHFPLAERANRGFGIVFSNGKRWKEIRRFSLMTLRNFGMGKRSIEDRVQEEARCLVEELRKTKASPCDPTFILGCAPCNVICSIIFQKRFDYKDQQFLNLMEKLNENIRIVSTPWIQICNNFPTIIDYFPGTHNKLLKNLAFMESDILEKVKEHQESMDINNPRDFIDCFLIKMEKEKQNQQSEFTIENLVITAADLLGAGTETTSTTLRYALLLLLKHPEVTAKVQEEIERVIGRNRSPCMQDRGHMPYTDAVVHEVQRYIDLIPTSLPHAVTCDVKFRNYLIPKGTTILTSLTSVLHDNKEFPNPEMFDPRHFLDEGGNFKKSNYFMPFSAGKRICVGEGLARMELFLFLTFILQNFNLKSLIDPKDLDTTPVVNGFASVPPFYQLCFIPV

CYP3A = assay: CYP inhibition screening, CYP3A-Testosterone; assay type: in vitro ADME
[4] = BBB-PAMPA permeability assay; assay type: in vitro ADME
[5] = Mouse liver microsomal stability screen; details: Mouse liver microsomes
CYP3A4 = CYP3A4 (Homo sapiens, UniProt P08684); assay: CYP inhibition screening, CYP3A4-Midazolam; assay type: in vitro ADME
CYP3A4, sequence (P08684 whole entry): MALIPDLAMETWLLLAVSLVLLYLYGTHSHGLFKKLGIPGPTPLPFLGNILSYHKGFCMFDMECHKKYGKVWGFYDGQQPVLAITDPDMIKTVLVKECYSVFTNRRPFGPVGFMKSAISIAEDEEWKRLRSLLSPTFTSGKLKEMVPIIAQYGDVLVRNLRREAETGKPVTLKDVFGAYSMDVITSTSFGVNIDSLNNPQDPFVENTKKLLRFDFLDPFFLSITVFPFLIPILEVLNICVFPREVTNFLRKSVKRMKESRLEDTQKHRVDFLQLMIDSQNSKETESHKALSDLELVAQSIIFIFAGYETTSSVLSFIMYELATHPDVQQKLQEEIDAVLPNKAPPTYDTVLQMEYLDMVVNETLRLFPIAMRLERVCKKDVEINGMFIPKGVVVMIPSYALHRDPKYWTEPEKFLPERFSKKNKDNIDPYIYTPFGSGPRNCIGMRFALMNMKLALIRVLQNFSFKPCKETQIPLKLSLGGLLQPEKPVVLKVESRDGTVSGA

CYP1A2 = biological target: T3, CYP1A2 (Homo sapiens, UniProt P05177); assay: CYP inhibition screening, CYP1A2; assay type: in vitro ADME
T3 sequence (P05177 1-516): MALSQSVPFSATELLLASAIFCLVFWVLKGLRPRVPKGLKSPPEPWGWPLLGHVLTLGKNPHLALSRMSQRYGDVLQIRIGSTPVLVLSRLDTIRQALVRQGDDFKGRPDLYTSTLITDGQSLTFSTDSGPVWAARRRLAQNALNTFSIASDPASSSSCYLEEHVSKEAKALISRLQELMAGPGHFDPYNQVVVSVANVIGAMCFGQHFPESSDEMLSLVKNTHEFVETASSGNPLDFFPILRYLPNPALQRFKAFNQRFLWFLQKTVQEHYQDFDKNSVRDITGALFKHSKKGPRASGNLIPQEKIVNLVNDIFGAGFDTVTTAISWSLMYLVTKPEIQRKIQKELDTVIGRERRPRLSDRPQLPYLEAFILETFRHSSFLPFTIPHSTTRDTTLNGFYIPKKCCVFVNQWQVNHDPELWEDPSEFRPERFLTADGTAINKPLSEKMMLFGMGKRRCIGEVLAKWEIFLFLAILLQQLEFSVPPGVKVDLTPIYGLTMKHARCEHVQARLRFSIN

Cathepsin-L = Cathepsin-L (Homo sapiens, UniProt P07711); assay: Specificity assay against Cathepsin-L; assay type: biochemical
Cathepsin-L, sequence (P07711 114-333, species assumed): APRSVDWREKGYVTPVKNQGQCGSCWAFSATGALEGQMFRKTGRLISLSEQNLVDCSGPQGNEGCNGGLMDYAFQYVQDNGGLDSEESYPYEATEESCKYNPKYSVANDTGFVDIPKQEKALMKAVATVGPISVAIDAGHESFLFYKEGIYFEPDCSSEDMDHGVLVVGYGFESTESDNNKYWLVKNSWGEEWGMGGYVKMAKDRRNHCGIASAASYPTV
Description: Purified recombinant enzyme was incubated with various concentrations of inhibitor in appropriate assay buffers in the presence of increasing concentrations of inhibitor. The formation of fluorescent product was monitored in duplicate reactions and the data was fit to appropriate equations to calculate the IC50 values.

Compound: N#CSc1cnc(N)s1 [Compound 10]
- APP cleavage after OGD ([1]; 1 μM compound): blocked
- APP cleavage after OGD, dose dependence ([1]; FIG. 7E): dose-dependent decrease
- IC50 in intact Pala cells [2]: slightly larger IC50 values
- AEP activity after addition of reducing agent (reversibility) (AEP): regained a substantial amount of activity

Compound: COc1ccc(N2CCN(C(c3ccc(N(C)C)cc3)c3nnnn3C(C)(C)C)CC2)cc1 (centres unmarked) [Compound 31]
- APP cleavage after OGD ([1]; 0.1 μM compound): blocked
- CYP2C9 inhibition (CYP2C9; 3 μM): 47.8%
- CYP2C9 inhibition (CYP2C9; 10 μM): 69.2%
- CYP2D6 inhibition (CYP2D6; 3 μM): 9.9%
- CYP2D6 inhibition (CYP2D6; 10 μM): 1.4%
- Mean Remaining Parent (NADPH-free) [3]: 75%
- Mean Remaining Parent (with NADPH) ([3]; 30 min): 12%
- Caco-2 permeability in words (Caco-2 monolayer): highly permeable
- A −>B Papp (Caco-2 monolayer; Table 1): 19.3 10^−6 cm · s^−1
- B −> A Papp (Caco-2 monolayer; Table 1): 17.4 10^−6 cm · s^−1
- RE (Caco-2 monolayer; Table 1): 0.9
- CYP2C19 inhibition (CYP2C19; 3 μM): 37.7%
- CYP2C19 inhibition (CYP2C19; 10 μM): 55.7%
- CYP3A-Testosterone inhibition (CYP3A; 3 μM): 2.5%
- CYP3A-Testosterone inhibition (CYP3A; 10 μM): 0.7%
- Pe [4]: <LLOQ
- Mean Remaining Parent (NADPH-free) [5]: 86%
- Mean Remaining Parent (with NADPH) [5]: 16%
- CYP3A4-Midazolam inhibition (CYP3A4; 3 μM): −0.9%
- CYP3A4-Midazolam inhibition (CYP3A4; 10 μM): 18.1%
- CYP1A2 inhibition (CYP1A2; 3 μM): 13.5%
- CYP1A2 inhibition (CYP1A2; 10 μM): 10.3%

Compound: Cn1c(=O)c2c(nc(S)n2C)n(C)c1=O [Compound 38D-16]
- A −>B Papp (Caco-2 monolayer; table of derivatives): 0.9 10^−6 cm · s^−1
- B −> A Papp (Caco-2 monolayer; table of derivatives): 3.0 10^−6 cm · s^−1
- RE (Caco-2 monolayer; table of derivatives): 3.3
- selectivity for AEP over Cathepsin-L (Cathepsin-L): 500 fold

Next, values leading:

- A −>B Papp (Caco-2 monolayer; table of derivatives): 10.0 10^−6 cm · s^−1
- B −> A Papp (Caco-2 monolayer; table of derivatives): 30.5 10^−6 cm · s^−1
- RE (Caco-2 monolayer; table of derivatives): 3.0
Compound: Cn1c(S)nc2c1c(=O)n(Cc1ccccc1)c(=O)n2C [Compound 38D-22]

- A −>B Papp (Caco-2 monolayer; table of derivatives): 0.2 10^−6 cm · s^−1
- RE (Caco-2 monolayer; table of derivatives): 8.1
Compound: CNC(=C[N+](=O)[O-])NCCSCc1ccc(CN(C)C)o1 [Ranitidine, reference compound]
